Laboratory results as given in patent US20130217722A1, “NOVEL COMPOUND USEFUL FOR THE TREATMENT OF DEGENERATIVE AND INFLAMMATORY DISEASES” (priority 2012, published 2013).
“And” between values parts separate entries of the source, which are not always exact repeats. Equal values may be shown once.

Columns and labels:
JAK2 = target: T1, JAK2 (Homo sapiens, UniProt O60674); experiment: JAK2 Ulight-JAK1 peptide assay; format: biochemical
T1 construct: Recombinant human JAK2 catalytic domain (amino acids 808-1132; catalog number PV4210) was purchased from Invitrogen; purchased Invitrogen PV4210
T1 sequence (O60674 808-1132): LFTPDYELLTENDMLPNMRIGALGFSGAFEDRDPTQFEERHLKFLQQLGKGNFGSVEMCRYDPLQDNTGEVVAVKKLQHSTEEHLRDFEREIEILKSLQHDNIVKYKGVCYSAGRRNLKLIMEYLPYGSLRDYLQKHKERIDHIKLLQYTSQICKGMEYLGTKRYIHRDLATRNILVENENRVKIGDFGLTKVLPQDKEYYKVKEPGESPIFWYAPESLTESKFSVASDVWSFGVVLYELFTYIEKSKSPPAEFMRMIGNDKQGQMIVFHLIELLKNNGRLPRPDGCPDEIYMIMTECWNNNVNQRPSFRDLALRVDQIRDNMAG
Experimental: Recombinant human JAK2 (catalytic domain, amino acids […]; catalog number PV4210) was purchased from Invitrogen. 0.0125 mU of JAK2 was incubated with 25 nM Ulight-JAK1(tyr1023) peptide (Perkin Elmer catalog number TRF0121) in kinase reaction buffer (25 mM HEPES pH7.0, 0.01% Triton X-100, 7.5 mM MgCl2, 2 mM DTT, 7.5 μM ATP) with or without 4 μL containing test compound or vehicle (DMSO, 1% final concentration), in a total volume of 20 μL, in a white 384 Opti plate (Perkin Elmer, catalog number 6007290). After 60 min at rt, reactions were stopped by adding 20 μL/well of detection mixture (1× detection buffer (Perkin Elmer, catalog number CR97-100C), 0.5 nM Europium-anti-phosphotyrosine (PT66) (Perkin Elmer, catalog number AD0068), 10 mM EDTA). Readout is performed using the Envision with excitation at 320 nm and measuring emission at 615 nm (Perkin Elmer). Kinase activity was calculated by subtracting relative fluorescence units (RFU) obtained in the presence of a positive control inhibitor (10 μM staurosporine) from RFU obtained in the presence of vehicle. The ability of a test compound to inhibit this activity was determined as:
Percentage inhibition=((RFU determined for sample with test compound present−RFU determined for sample with positive control inhibitor) divided by (RFU determined in the presence of vehicle−RFU determined for sample with positive control inhibitor))*100. […]

rat CIA model = experiment: Rat collagen induced arthritis (CIA) model; format: in vivo; conditions: p.o., therapeutic dosing day 16 to day 30
Experimental: Completed Freund's adjuvant (CFA) and incomplete Freund's adjuvant (IFA) were purchased from Difco. Bovine collagen type II (CII), lipopolysaccharide (LPS), and Enbrel was obtained from Chondrex (Isle d'Abeau, France); Sigma (P4252, L'Isle d'Abeau, France), Whyett (25 mg injectable syringe, France) Acros Organics (Palo Alto, Calif.), respectively. All other reagents used were of reagent grade and all solvents were of analytical grade.
Dark Agouti rats (male, 7-8 weeks old) were obtained from Harlan Laboratories (Maison-Alfort, France). Rats were kept on a 12 h light/dark cycle (0700-1900). Temperature was maintained at 22° C., and food and water were provided ad libitum.
One day before the experiment, CII solution (2 mg/mL) was prepared with 0.05 M acetic acid and stored at 4° C. Just before the immunization, equal volumes of adjuvant (IFA) and CII were mixed by a homogenizer in a pre-cooled glass bottle in an ice water bath. Extra adjuvant and prolonged homogenization may be required if an emulsion is not formed. […]
Arthritis is scored according to the method of Khachigian 2006, Lin et al 2007 and Nishida et al. 2004). […]
The area under the curve (AUC) from day 1 to day 14 was calculated for each individual rat. The AUC of each animal was divided by the average AUC obtained for the vehicle in the study from which the data on that animal was obtained and multiplied by 100 (i.e. the AUC was expressed as a percentage of the average vehicle AUC per study).
The clinical score difference for each animal was divided by the average clinical score difference obtained for the vehicle in the study from which the data on that animal was obtained and multiplied by 100 (i.e. the difference was expressed as a percentage of the average clinical score difference for the vehicle per study).
Clinically, body weight loss is associated with arthritis (Shelton et al., 2005; Rall, 2004; Walsmith et al., 2004). […] The change in body weight (%) after onset of arthritis was calculated as follows: […]

JAK1 selectivity vs JAK2 (JAK2): 28 fold
IC50 (JAK2; Ulight-JAK1(tyr1023) peptide, 7.5 μM ATP, individual determinations, read-out: IC50 against JAK2): 61.5 nM and 108 nM and 101 nM and 42.9 nM and 26.4 nM and 155 nM and 35.7 nM and 30.5 nM
SMILES: CCc1cc(C2=CCN(C(=O)CC#N)CC2)ccc1N(C)c1cc2c(cn1)ncn2C [Compound 1]
efficacy in rat CIA model (rat CIA model; 1 mg/kg): statistically significant efficacy
efficacy in rat CIA model (rat CIA model; 3 mg/kg): statistically significant efficacy
efficacy in rat CIA model (rat CIA model; 10 mg/kg): statistically significant efficacy
